Results taken from US20080085912A1, “Isoxazole derivatives and methods of treating diseases” (Unitech Pharmaceuticals, Inc., priority 2006, published 2008).
Where “and” joins values, the source holds several entries; their conditions need not be identical. Equal values may be shown once.

Tests used:
ITGB6 = assay: Gene array analysis, keratinocytes: ITGB6; assay type: cell-based, Human; settings: 35 μg/ml; UVB
Protocol: (§1) Human epidermal keratinocytes were seeded into 6-well plates and grown at 37±2° C. and 5±1% CO2 using serum free Epilife media supplemented as recommended by the manufacturer. Upon reaching confluency, the media were removed and the cells were treated overnight with Epilife media containing 1% v/v each of the stock solutions above (Vehicle stock and UTR-1 stock). Final concentration was 35 μg/ml for UTR-1. Two wells in the 6-well plate were prepared for each treatment. After applying the test material the cells were incubated for 24 hours at 37±2° C. and 5±1% CO2.
(§2) At the end of the incubation period the culture media was removed via aspiration and replaced with phosphate buffered saline and the cells were then irradiated with ˜30 mJ/cm^2 of UVB radiation. After the irradiation, the phosphate buffered saline was replaced by fresh culture media and the cells were incubated overnight at 37±2° C. and 5±1% CO2. After the incubation the cell culture media was collected to measure TNF-α release by a commercial ELISA Assay kit. […] In general, (1) the fluorescence intensity of the gene marker should be greater than the background intensity, and (2) the ratio of Cy5/Cy3 (treated/untreated) fluorescence intensity needs to be greater than 1.3 or less than 0.66 to indicate a change of ±30% in gene expression.

APOBEC1 = assay: Gene array analysis, keratinocytes: APOBEC1; assay type: cell-based, Human; settings: 35 μg/ml; UVB
Protocol: as §1, §2

JAK3 = assay: Gene array analysis, keratinocytes: JAK3; assay type: cell-based, Human; settings: for Ratio of treated/control / Suppression %: 35 μg/ml, UVB
Protocol: as §1
(§3) At the end of the incubation period the culture media was removed via aspiration and replaced with phosphate buffered saline and the cells were then irradiated with ˜30 mJ/cm^2 of UVB radiation. After the irradiation, the phosphate buffered saline was replaced by fresh culture media and the cells were incubated overnight at 37±2° C. and 5±1% CO2. After the incubation the cell culture media was collected to measure TNF-α release by a commercial ELISA Assay kit. The cells were washed once with PBS and then a trypsin/EDTA solution was added to release the cells, followed by the addition of trypsin neutralizing solution. The cells were collected and pooled into 15 ml centrifuge tubes based on their treatment and pelleted by centrifuging at 1000 RPM at 4±2° C. After removing the supernatant, the pelleted cells were lysed by adding 500 μl of guanidinium thiocyanate lysis solution to each tube and then repeatedly drawing and releasing the solution into the pipette until the cell pellet is dissolved. Total RNA was then isolated by an RNAqueous kit (Ambion). After purifying the RNA, mRNA is isolated and the converted into anti-sense RNA (aRNA). The aRNA is then labeled with a florescent probe. In this case, Cy3 (green florescent signal) is used to label the sRNA from untreated sample, while Cy5 (red fluorescent) is used to label the aRNA of treated sample. Once the aRNA is labeled and any unincorporated dye is removed from the sample, the labeled aRNA is mixed with a hybridized solution and applied to the microarray. The microarray is then hybridized overnight at 60-65° C. After hybridization, the microarray is washed to remove any unbound aRNA probe and then scanned with a microarray scanner. Criteria for evaluating changes in gene expression may vary. In general, (1) the fluorescence intensity of the gene marker should be greater than the background intensity, and (2) the ratio of Cy5/Cy3 (treated/untreated) fluorescence intensity needs to be greater than 1.3 or less than 0.66 to indicate a change of ±30% in gene expression.

[1] = test system: Carrageenan-induced hind paw edema; assay: Carrageenan-induced hind paw edema test on rats; assay type: in vivo, SD rats; settings: for Anti-inflammatory activity (in words): carrageenan-induced edema animal study; for Avg E % of the injected paw: group average of 5 rats; for Avg E % of the injected paw / Edema % of the injected paw: 20 mg/kg i.p. pretreatment; for Volume (ml) of the injected paw / Edema % of the injected paw: individual rats (Rat 1-5); for Volume (ml) of the injected paw: 20 mg/kg i.p. 1 h before carrageenan, 20 mg/kg
Protocol: Male/female SD rats (180-215 g) were assigned to two groups: (1) control group and (2) test group, with 5 rats in each group. UTR-1 was first dissolved in DMSO (20 mg in 0.5 ml DMSO) and then diluted with 1% CMC (carboxymethylcellulose) to make 5 ml sample preparation. One hour before the carrageenan challenge (pretreatment), 1 ml of the sample preparation was injected i.p. into a rat in a test group. This is equivalent to 20 mg/kg (1 ml×4 mg/ml×1000 g/200 g=20 mg/kg based on the average weight per rat of 200 g). The vehicle without drug was injected in the same way into animals in the control group. In order to induce inflammation, 50 μl of a 1% carrageenan solution in normal saline was injected into the right hind paw subplantar tissue. The development of paw edema was measured by a plethysmometer (Basile 7140 plethysmometer, Ugo, Varese, Italy). After the carrageenan challenge, each paw volume (ml) was measured hourly. The Edema (E %) is calculated as follows: [formula] V0=Volume (mL) of the rear right footpad before the injection of Carrageenan Vt=Volume (mL) of the rear right footpad at “t” time after the injection of Carrageenan

PTGER1 = assay: Gene array analysis, keratinocytes: PTGER1; assay type: cell-based, Human; settings: 35 μg/ml; UVB
Protocol: as §1, §2

DEFA6 = assay: Gene array analysis, keratinocytes: DEFA6; assay type: cell-based, Human; settings: 35 μg/ml; UVB
Protocol: as §1, §2

MAP3K2 = assay: Gene array analysis, keratinocytes: MAP3K2; assay type: cell-based, Human
Protocol: as §1
as §3, with “In this case, Cy3 (green florescent signal) is used to label the sRNA from untreated sample, while Cy5 (red fluorescent) is used to label the aRNA of treated sample. Once the aRNA is labeled and any unincorporated dye is removed from the sample, the labeled aRNA is mixed with a hybridized solution and applied to the microarray. The microarray is then hybridized overnight at 60-65° C. After hybridization, the microarray is washed to remove any unbound aRNA probe and then scanned with a microarray scanner. Criteria for evaluating changes in gene expression may vary.” left out

TUCAN = assay: Gene array analysis, keratinocytes: TUCAN; assay type: cell-based, Human; settings: 35 μg/ml; UVB
Protocol: as §1, §2

EPHB4 = assay: Gene array analysis, keratinocytes: EPHB4; assay type: cell-based, Human; settings: 35 μg/ml; UVB
Protocol: as §1, §2

EFA6R = assay: Gene array analysis, keratinocytes: EFA6R; assay type: cell-based, Human; settings: 35 μg/ml; UVB
Protocol: as §1, §2

TNF-α = TNF-α released from UVB-irradiated keratinocytes in vitro (ELISA); assay type: cell-based, Human
Protocol: 1. Vehicle stock: 50:50 v/v EtOH:PEG 600
2. UTR-1 stock: 3.5 mg/ml UTR-1 in a vehicle of 50:50 v/v EtOH:PEG 600
as §1, §3

[2] = array entry MAP3K2 (homo sapien), 35 μg/ml, UVB
[3] = UVB ~30 mJ/cm^2, 35 μg/ml, 24 h pretreatment

Cc1cc(C(=O)O)no1 [UTR-1, 5-methylisoxazole-3-carboxylic acid]
Ratio of treated/control (ITGB6): 0.3
Suppression % (ITGB6): 70%
Ratio of treated/control (APOBEC1): 0.333
Suppression % (APOBEC1): 67%
Ratio of treated/control (JAK3; array entry JAK3 (homo sapien)): 0.386
Suppression % (JAK3; array entry JAK3 (homo sapien)): 61%
Ratio of treated/control (JAK3; array entry JAK3): 0.417
Suppression % (JAK3; array entry JAK3): 58%
Gene suppression (in words) (JAK3; gene array analysis): significantly suppressed
Anti-inflammatory activity (in words) [1]: surpassingly effective in anti-inflammation
Anti-inflammatory activity (in words) ([1]; listed as 5-methylisoxazole-3-carboxylic aicd): surprisingly and unexpectedly effective in anti-inflammation
Avg E % of the injected paw ([1]; Time 0 hr): 0.00%
Avg E % of the injected paw ([1]; Time 1 hr): 11.90%
Avg E % of the injected paw ([1]; Time 2 hr): 22.70%
Avg E % of the injected paw ([1]; Time 3 hr): 37.85%
Avg E % of the injected paw ([1]; Time 4 hr): 49.89%
Volume (ml) of the injected paw ([1]; Time 0 hr): 1.46 ml and 1.48 ml and 1.35 ml and 1.33 ml (2×)
Volume (ml) of the injected paw ([1]; Time 1 hr): 1.77 ml and 1.47 ml and 1.50 ml (2×) and 1.53 ml
Volume (ml) of the injected paw ([1]; Time 2 hr): 1.92 mL and 1.53 mL and 1.65 mL and 1.66 mL and 1.75 mL
Volume (ml) of the injected paw ([1]; Time 3 hr): 2.36 mL and 1.55 mL and 1.76 mL and 2.10 mL and 1.79 mL
Volume (ml) of the injected paw ([1]; Time 4 hr): 2.49 mL and 1.62 mL and 1.78 mL and 2.35 mL and 2.14 mL
Edema % of the injected paw ([1]; Time 0 hr): 0.00%
Edema % of the injected paw ([1]; Time 1 hr): 21.23% and −0.68% and 11.11% and 15.04% and 12.78%
Edema % of the injected paw ([1]; Time 2 hr): 31.51% and 3.38% and 22.22% and 24.81% and 31.58%
Edema % of the injected paw ([1]; Time 3 hr): 61.64% and 4.73% and 30.37% and 57.89% and 34.59%
Edema % of the injected paw ([1]; Time 4 hr): 70.55% and 9.46% and 31.85% and 76.69% and 60.90%
Ratio of treated/control (PTGER1): 0.286
Suppression % (PTGER1): 71%
Ratio of treated/control (DEFA6): 0.38
Suppression % (DEFA6): 62%
Ratio of treated/control (MAP3K2; [2]): 0.592
Suppression % (MAP3K2; [2]): 40%
Gene suppression (in words) (MAP3K2; gene array analysis): significantly suppressed
Ratio of treated/control (TUCAN): 0.333
Suppression % (TUCAN): 67%
Ratio of treated/control (EPHB4): 0.433
Suppression % (EPHB4): 57%
Ratio of treated/control (EFA6R): 0.375
Suppression % (EFA6R): 63%
Reduction of TNF-α secreted from stimulated keratinocyte cells (in words) (TNF-α): very effective in reducing TNF-α
TNFα (pg/ml), Sample2 (TNF-α; [3]): 119 pg/mL
TNFα (pg/ml), sample1 (TNF-α; [3]): 120 pg/mL
TNFα Avg. (TNF-α; average of n=2 wells, UVB ~30 mJ/cm^2, 35 μg/ml): 120 pg/mL
